Broadly, the IC50 is the midpoint of a concentration-inhibition curve.

Series [1] concerns the target PI3-kinase p110-alpha/p85-alpha (Homo sapiens, UniProt P42336).
Description: Inhibition of recombinant N-terminal FLAG-tagged full-length human PI3K p110alpha/human p85alpha co- expressed in Sf9 insect cells using phosphatidylinositol 4,5-bisphosphate as substrate preincubated for 60 mins followed by substrate addition and measured after 1 hr in presence of ATP by ADP-Glo lipid kinase assay
Series [2] deals with T1, Phosphatidylinositol 4,5-bisphosphate 3-kinase catalytic subunit gamma isoform (Homo sapiens, UniProt P48736).
Description: Inhibition of recombinant N-terminal His-tagged full-length human PI3K p120gamma expressed in Sf9 insect cells using phosphatidylinositol 4,5-bisphosphate as substrate preincubated for 60 mins followed by substrate addition and measured after 1 hr in presence of ATP by ADP-Glo lipid kinase assay
Series [3] addresses PI3-kinase p110-delta/p85-alpha (Homo sapiens, UniProt O00329).
Description: Inhibition of recombinant N-terminal GST-tagged full-length human PI3K p110delta/p85alpha co- expressed in Sf9 insect cells using phosphatidylinositol 4,5-bisphosphate as substrate preincubated for 60 mins followed by substrate addition and measured after 1 hr in presence of ATP by ADP-Glo lipid kinase assay
Series [4] has as its target T1, Phosphatidylinositol 4,5-bisphosphate 3-kinase catalytic subunit gamma isoform. The source holds these as a separate data set.
Description: Inhibition of PI3Kgamma in human THP-1 cells assessed as reduction in Akt phosphorylation at S473 residue incubated for 60 mins by alphalisa assay
For a further series, the species on record is Homo sapiens. The series can be described thus: Selectivity index, ratio of IC50 for N-terminal FLAG-tagged full-length human PI3K p110beta/human p85alpha to IC50 for recombinant N-terminal His-tagged full-length human PI3K p120gamma.
In another series the target is PI3K p110 beta/p85 alpha (Homo sapiens, UniProt P42338).
Series [5] is described as follows: Intrinsic clearance in human hepatocytes assessed per 10^6 cells at 0.5 uM by LC-MS/MS analysis. In kind it is ADME, cell-based, Hepatocyte. The note with it: read-out: CLH.
Series [6] can be described thus: Intrinsic clearance rat hepatocytes assessed per 10^6 cells by LC-MS/MS analysis. It counts as ADME, tissue-based, Hepatocyte. The note with it: read-out: CLH.

Structures are written as SMILES. A value given as a limit tells only on which side of the number the result lay.

PI3-kinase p110-delta/p85-alpha, sequence (P27986 whole entry, canonical isoform): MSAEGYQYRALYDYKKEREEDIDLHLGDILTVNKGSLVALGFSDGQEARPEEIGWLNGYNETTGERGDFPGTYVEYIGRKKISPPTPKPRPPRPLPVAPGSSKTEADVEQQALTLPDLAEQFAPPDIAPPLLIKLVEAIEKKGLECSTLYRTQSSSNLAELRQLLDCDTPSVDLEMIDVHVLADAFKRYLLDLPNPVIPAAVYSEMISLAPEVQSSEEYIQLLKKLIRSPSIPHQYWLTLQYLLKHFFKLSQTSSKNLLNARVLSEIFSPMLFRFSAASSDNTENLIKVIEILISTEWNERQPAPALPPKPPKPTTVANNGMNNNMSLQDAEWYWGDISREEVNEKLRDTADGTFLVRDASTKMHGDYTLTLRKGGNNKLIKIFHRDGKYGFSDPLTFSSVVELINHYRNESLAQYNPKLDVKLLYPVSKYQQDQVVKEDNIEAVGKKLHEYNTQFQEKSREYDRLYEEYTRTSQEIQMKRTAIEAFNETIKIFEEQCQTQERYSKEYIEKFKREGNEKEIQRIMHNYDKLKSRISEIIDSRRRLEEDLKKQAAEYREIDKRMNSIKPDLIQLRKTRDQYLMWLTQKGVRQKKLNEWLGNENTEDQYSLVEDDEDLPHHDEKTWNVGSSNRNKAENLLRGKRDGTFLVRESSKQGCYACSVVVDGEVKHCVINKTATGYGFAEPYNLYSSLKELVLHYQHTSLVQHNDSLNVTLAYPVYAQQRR
PI3-kinase p110-delta/p85-alpha, sequence (O00329 whole entry, canonical isoform): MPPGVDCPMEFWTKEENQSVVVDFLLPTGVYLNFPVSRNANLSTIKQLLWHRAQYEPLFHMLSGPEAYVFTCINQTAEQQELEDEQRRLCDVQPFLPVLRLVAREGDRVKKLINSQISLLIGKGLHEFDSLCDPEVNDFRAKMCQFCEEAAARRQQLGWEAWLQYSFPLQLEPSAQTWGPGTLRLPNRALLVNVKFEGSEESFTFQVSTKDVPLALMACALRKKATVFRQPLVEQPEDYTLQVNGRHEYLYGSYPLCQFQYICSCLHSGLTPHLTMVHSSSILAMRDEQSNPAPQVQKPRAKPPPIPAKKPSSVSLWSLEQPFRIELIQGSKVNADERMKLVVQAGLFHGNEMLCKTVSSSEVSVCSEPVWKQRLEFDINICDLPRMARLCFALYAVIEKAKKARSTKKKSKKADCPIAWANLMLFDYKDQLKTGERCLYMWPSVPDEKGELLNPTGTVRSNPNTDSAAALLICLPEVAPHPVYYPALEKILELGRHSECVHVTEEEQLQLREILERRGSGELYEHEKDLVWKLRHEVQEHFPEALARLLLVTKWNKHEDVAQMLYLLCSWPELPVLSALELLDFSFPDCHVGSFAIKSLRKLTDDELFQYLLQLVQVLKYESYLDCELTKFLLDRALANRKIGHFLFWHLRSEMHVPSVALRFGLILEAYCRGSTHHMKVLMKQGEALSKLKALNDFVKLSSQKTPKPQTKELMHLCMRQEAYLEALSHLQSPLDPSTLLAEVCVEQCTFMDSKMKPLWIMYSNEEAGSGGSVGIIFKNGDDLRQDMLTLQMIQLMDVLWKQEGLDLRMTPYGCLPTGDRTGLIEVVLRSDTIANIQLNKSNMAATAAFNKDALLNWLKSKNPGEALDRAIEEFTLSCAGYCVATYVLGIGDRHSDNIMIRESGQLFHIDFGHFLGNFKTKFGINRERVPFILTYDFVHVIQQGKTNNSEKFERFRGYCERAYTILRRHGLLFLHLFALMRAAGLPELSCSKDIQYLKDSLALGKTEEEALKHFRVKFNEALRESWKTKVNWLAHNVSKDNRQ
PI3-kinase p110-alpha/p85-alpha, sequence (P27986 whole entry, canonical isoform): as the sequence (P27986 whole entry, canonical isoform) above
PI3-kinase p110-alpha/p85-alpha, sequence (P42336 whole entry, canonical isoform): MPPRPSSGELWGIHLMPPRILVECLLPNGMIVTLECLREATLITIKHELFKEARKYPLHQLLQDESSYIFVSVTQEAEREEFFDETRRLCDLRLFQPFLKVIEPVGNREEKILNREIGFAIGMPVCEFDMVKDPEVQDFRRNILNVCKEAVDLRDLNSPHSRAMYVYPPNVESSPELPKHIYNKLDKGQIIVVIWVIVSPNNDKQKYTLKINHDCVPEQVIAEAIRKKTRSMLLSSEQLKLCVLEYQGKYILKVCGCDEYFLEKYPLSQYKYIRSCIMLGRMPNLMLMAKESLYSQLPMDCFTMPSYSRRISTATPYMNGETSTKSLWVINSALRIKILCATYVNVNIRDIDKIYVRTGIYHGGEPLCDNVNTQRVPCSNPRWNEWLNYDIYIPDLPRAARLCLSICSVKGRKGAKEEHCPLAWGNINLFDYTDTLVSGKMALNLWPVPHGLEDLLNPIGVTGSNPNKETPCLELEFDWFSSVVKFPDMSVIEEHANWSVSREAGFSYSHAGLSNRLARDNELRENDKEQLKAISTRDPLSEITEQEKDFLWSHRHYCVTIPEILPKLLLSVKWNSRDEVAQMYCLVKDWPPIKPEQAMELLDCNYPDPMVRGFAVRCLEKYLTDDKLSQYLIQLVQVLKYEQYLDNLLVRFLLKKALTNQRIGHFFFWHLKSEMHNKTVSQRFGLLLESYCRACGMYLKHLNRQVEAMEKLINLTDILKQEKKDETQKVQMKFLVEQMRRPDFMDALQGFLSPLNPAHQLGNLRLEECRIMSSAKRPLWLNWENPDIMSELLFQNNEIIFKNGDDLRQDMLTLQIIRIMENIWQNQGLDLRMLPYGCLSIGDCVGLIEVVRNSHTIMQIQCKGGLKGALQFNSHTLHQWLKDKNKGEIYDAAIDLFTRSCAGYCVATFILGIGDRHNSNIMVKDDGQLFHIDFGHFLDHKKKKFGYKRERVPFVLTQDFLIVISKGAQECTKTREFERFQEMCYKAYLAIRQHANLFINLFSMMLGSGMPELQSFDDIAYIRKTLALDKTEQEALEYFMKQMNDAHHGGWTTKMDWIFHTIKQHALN
PI3K p110 beta/p85 alpha, sequence (P27986 whole entry): as the sequence (P27986 whole entry, canonical isoform) above
PI3K p110 beta/p85 alpha, sequence (P42338 whole entry): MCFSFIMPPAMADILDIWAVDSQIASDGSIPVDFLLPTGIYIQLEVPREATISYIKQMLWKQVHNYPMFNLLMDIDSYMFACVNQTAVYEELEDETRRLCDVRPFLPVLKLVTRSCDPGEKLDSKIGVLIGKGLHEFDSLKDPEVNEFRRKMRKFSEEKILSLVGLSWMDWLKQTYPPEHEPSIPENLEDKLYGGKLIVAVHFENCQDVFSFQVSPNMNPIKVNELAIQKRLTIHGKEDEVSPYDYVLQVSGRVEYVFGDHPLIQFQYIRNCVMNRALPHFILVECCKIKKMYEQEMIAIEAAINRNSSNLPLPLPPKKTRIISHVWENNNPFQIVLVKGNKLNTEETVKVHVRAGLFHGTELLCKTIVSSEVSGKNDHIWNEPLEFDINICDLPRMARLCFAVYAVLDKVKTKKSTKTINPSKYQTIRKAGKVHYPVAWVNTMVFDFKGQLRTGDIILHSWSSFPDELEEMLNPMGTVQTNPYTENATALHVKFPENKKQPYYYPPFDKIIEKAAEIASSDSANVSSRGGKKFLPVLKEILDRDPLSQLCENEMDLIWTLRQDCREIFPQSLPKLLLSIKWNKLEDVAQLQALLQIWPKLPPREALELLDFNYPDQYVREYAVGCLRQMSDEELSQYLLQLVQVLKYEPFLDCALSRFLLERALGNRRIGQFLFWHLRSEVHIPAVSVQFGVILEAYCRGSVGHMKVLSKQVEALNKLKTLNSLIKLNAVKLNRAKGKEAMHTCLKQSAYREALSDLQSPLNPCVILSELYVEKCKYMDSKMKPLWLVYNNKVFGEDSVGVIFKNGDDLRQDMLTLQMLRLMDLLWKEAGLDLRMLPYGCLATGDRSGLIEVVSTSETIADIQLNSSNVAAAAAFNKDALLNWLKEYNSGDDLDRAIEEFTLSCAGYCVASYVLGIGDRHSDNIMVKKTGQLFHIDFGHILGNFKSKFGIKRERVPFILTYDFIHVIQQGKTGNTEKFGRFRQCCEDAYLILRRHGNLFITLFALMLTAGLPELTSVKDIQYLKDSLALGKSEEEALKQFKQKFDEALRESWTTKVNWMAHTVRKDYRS
T1 sequence (P48736 whole entry, canonical isoform): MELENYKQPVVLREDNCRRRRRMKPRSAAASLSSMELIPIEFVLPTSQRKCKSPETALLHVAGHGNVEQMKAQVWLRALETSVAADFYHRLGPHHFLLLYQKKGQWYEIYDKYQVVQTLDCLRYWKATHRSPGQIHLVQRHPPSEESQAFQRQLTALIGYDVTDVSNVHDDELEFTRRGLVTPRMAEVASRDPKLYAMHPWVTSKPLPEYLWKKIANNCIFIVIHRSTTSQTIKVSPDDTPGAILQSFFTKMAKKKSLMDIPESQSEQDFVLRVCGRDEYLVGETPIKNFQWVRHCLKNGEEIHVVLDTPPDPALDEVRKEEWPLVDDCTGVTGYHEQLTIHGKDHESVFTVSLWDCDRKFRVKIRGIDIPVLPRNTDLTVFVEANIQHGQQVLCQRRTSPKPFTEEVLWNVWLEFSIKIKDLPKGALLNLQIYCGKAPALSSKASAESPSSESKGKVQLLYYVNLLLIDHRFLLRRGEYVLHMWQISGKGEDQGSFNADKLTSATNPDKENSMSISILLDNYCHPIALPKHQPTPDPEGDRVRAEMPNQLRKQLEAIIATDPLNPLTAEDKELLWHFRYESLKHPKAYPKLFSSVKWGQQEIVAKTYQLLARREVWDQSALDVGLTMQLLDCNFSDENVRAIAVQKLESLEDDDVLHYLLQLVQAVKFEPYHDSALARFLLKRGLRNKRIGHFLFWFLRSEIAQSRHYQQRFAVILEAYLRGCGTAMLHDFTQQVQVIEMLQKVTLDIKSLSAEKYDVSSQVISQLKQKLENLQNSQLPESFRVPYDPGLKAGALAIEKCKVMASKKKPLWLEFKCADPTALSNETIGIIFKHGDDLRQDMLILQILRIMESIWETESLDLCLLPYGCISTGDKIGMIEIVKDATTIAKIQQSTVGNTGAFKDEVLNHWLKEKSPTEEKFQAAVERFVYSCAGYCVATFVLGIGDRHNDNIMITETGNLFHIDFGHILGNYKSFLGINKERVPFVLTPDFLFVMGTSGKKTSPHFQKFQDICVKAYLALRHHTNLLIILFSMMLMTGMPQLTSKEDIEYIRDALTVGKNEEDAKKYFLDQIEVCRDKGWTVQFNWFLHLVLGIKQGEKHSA
Description for PI3K p110 beta/p85 alpha: Inhibition of recombinant N-terminal FLAG-tagged full-length human PI3K p110beta/human p85alpha co- expressed in Sf9 insect cells using phosphatidylinositol 4,5-bisphosphate as substrate preincubated for 60 mins followed by substrate addition and measured after 1 hr in presence of ATP by ADP-Glo lipid kinase assay

With `Cc1cc(-c2ccn3nc(N)c(-c4ccn[nH]4)c3n2)cc2c1C(=O)N([C@@H](C)C1CC1)C2`, the concentration for half-maximal inhibition (IC50) in series [1] was 1.98 µM; in series [2] it was 0.044 µM; in series [3], 2.69 µM; in series [4] it was 0.62 µM.
For `CC(C)c1cc(-c2c(N)nn3ccc(-c4cc5c(c(C(F)(F)F)c4)C(=O)N([C@@H](C)C4CC4)C5)nc23)ccc1C(=O)O`, the Ratio IC50 in the series listed under Homo sapiens was 10100. In addition, the half-maximal inhibitory concentration (IC50) in series [1] is 0.0824 µM; against PI3K p110 beta/p85 alpha, 10.1 µM; in series [2], 0.001 µM; in series [3] it was 0.125 µM; in series [4] it was 0.076 µM.
On to `C[C@@H](C1CC1)N1Cc2cc(-c3ccn4nc(N)c(-c5ncccn5)c4n3)cc(C(F)(F)F)c2C1=O`, for which the IC50 in series [1] was over 10 µM; in series [2], 0.053 µM; in series [3] it was over 10 µM; in series [4], 0.8 µM.
`Cc1cc(-c2ccn3nc(N)c(-c4cnn(CCO)c4)c3n2)cc2c1C(=O)N([C@@H](C)C1CC1)C2`: the half-inhibitory concentration (IC50) stood at 1.16 µM in series [1], 0.0064 µM in series [2], 1.16 µM in series [3] and 0.4 µM in series [4].
As to `Cc1cc(-c2ccn3nc(N)c(-c4ccncn4)c3n2)cc2c1C(=O)N([C@@H](C)C1CC1)C2`, the IC50 is 2.73 µM in series [1], 0.0075 µM in series [2], 2.2 µM in series [3] and 0.55 µM in series [4].
For `CC(=O)Nc1nc2ccc(-c3cc(C)c4c(c3)CN([C@@H](C)C3CC3)C4=O)cn2n1` (racemic), in the series listed under Homo sapiens, the Ratio IC50 is over 131. Further, the half-inhibitory concentration (IC50) in series [1] is over 10 µM; on PI3K p110 beta/p85 alpha, over 10 µM; in series [2], 0.076 µM; in series [3], over 10 µM; in series [4] it was 3 µM.
`Cc1cc(-c2ccc3nc(NC(=O)C(C)C)cn3n2)cc2c1C(=O)N([C@@H](C)C1CC1)C2`: the IC50 in series [1] was over 10 µM; in series [2] it was 0.07 µM; in series [3], over 10 µM; in series [4], 9.4 µM.
`Cc1cc(-c2ccn3nc(N)c(-c4ccc(CC(=O)O)cc4)c3n2)cc2c1C(=O)N([C@@H](C)C1CC1)C2`: the half-maximal inhibitory concentration (IC50) in series [1] was found to be 5.45 µM; in series [2] it was 0.0021 µM; in series [3], 4.66 µM; in series [4] it was 0.87 µM.
On the same counts, the results for `CNS(=O)(=O)c1cc(-c2ccn3nc(NC(C)=O)cc3n2)cc2c1C(=O)N([C@@H](C)C1CC1)C2` are 9.85 µM, 0.0027 µM, 4.55 µM and 0.24 µM.
Consider `Cc1cc(-c2ccc3nc(N)cn3n2)cc2c1C(=O)N([C@@H](C)C1CC1)C2` (racemic), for which, in the series filed under Homo sapiens, the Ratio IC50 is over 24. In addition, the IC50 in series [1] is over 10 µM; on PI3K p110 beta/p85 alpha, over 10 µM; in series [2], 0.425 µM; in series [3], over 10 µM; in series [4] it was 1.5 µM.
For `Cc1cc(-c2ccc3[nH]c(N)nc3c2)cc2c1C(=O)N([C@@H](C)C1CC1)C2` (racemic), the IC50 (in series [1]; at PI3K p110 beta/p85 alpha; in series [2]; in series [3]) was over 10 µM in each case.
As for `Cc1cc(-c2ccc3nc(NC(=O)N4CCC[C@H]4C(N)=O)cn3n2)cc2c1C(=O)N([C@@H](C)C1CC1)C2`, the IC50 was found to be 2.47 µM in series [1], 0.0029 µM in series [2], 8.21 µM in series [3] and 0.46 µM in series [4].
In the same order, the values of `COCC(=O)Nc1cn2nc(-c3cc(C)c4c(c3)CN([C@@H](C)C3CC3)C4=O)ccc2n1` are over 10 µM, 0.014 µM, over 10 µM and 0.69 µM.
As for `CC(=O)Nc1cc2nc(-c3cc(C)c4c(c3)CN([C@@H](C)C3CC3)C4=O)ccn2n1`, the IC50 in series [1] was over 10 µM; in series [2] it was 0.0044 µM; in series [3], over 10 µM; in series [4] it was 0.24 µM.
Regarding `CC(=O)Nc1nc2cc(-c3cc(C)c4c(c3)CN([C@@H](C)C3CC3)C4=O)ccc2[nH]1` (racemic), the Ratio IC50 in the series filed under Homo sapiens is over 21. Further, the IC50 in series [1] is over 10 µM; at PI3K p110 beta/p85 alpha, over 10 µM; in series [2] it was 0.482 µM; in series [3], over 10 µM; in series [4], 1 µM.
Consider `Cc1cc(-c2ccc3nc(NS(C)(=O)=O)cn3n2)cc2c1C(=O)N([C@@H](C)C1CC1)C2`, for which the IC50 is over 10 µM in series [1], 5.3 µM in series [2], over 10 µM in series [3] and over 30 µM in series [4].
For `Cc1cc(-c2ccn3nc(N)c(-c4ccccn4)c3n2)cc2c1C(=O)N([C@@H](C)C1CC1)C2`, the IC50 in series [1] is over 10 µM; in series [2], 0.064 µM; in series [3], over 10 µM; in series [4], 2.3 µM.
On to `CC(=O)Nc1cc2nc(-c3cc4c(c(C(F)(F)F)c3)C(=O)N([C@@H](C)C3CC3)C4)ccn2n1`, for which the hepatocyte CLint at 0.5 µM in series [5] turned out to be 2.4 µL/min/1e6 cells. The hepatocyte CLint in series [6] was under 1.2 µL/min/1e6 cells. Further, the IC50 was found to be 8.34 µM in series [1], 0.0022 µM in series [2], 2.61 µM in series [3] and 0.15 µM in series [4].
For `Cc1ncc(-c2c(N)nn3ccc(-c4cc(C)c5c(c4)CN([C@@H](C)C4CC4)C5=O)nc23)o1`, the concentration for half-maximal inhibition (IC50) in series [1] is 2.26 µM; in series [2] it was 0.0059 µM; in series [3], 3.25 µM; in series [4] it was 0.23 µM.
On the same counts, the results for `CC(=O)Nc1cc2nc(-c3cc4c(c(NS(C)(=O)=O)c3)C(=O)N([C@@H](C)C3CC3)C4)ccn2n1` are 8.97 µM, 0.0013 µM, 6.14 µM and 0.16 µM.
On the same counts, the results for `Cc1c(-c2c(N)nn3ccc(-c4cc5c(c(C(F)(F)F)c4)C(=O)N([C@@H](C)C4CC4)C5)nc23)cnn1C` are 1.51 µM, 0.0066 µM, 2.24 µM and 0.44 µM.
`CC(=O)Nc1cn2nc(-c3cc(C)c4c(c3)CN([C@@H](C)C3CC3)C4=O)ccc2n1`: in the series listed under Homo sapiens, the Ratio IC50 was over 1820. In addition, the IC50 was over 10 µM in series [1]; over 10 µM at PI3K p110 beta/p85 alpha; 0.0055 µM in series [2]; over 10 µM in series [3]; 0.45 µM in series [4].
With `Cc1cc(-c2ccn3nc(N)c(-c4nc[nH]n4)c3n2)cc2c1C(=O)N([C@@H](C)C1CC1)C2`, the IC50 in series [1] was 6.29 µM; in series [2] it was 0.031 µM; in series [3], 6.05 µM; in series [4] it was 0.63 µM.
On the same counts, the results for `CCC(=O)Nc1cn2nc(-c3cc(C)c4c(c3)CN([C@@H](C)C3CC3)C4=O)ccc2n1` are over 10 µM, 0.0073 µM, over 10 µM and 0.83 µM.
On the same counts, the results for `Cc1cc(-c2ccn3ncc(-c4cnn(C)c4)c3n2)cc2c1C(=O)N([C@@H](C)C1CC1)C2` are 4.14 µM, 0.0091 µM, 3.44 µM and 0.3 µM.
In the same order, the values of `Cc1cc(-c2c(N)nn3ccc(-c4cc(C)c5c(c4)CN([C@@H](C)C4CC4)C5=O)nc23)ccc1C(=O)O` are 0.096 µM, 0.0022 µM, 0.21 µM and 0.21 µM.
`Cc1cc(-c2ccc3nc(N)c(-c4cnn(C)c4)n3n2)cc2c1C(=O)N([C@@H](C)C1CC1)C2`: the IC50 in series [1] is over 10 µM; in series [2] it was 0.017 µM; in series [3], over 10 µM; in series [4], 0.49 µM.
Take `Cc1cc(-c2ccc3nc(N)nn3c2)cc2c1C(=O)N([C@@H](C)C1CC1)C2` (racemic): in the series listed under Homo sapiens, the Ratio IC50 was over 34. The IC50 in series [1] is over 10 µM; on PI3K p110 beta/p85 alpha, over 10 µM; in series [2] it was 0.291 µM; in series [3] it was over 10 µM; in series [4], 15 µM.
For `CC(=O)Nc1nn2ccc(-c3cc(C)c4c(c3)CN([C@@H](C)C3CC3)C4=O)nc2c1-c1cnn(C)c1`, the IC50 is over 10 µM in series [1], 0.429 µM in series [2], over 10 µM in series [3] and 1.5 µM in series [4].
Turning to `Cc1cc(-c2ccn3nc(N)cc3n2)cc2c1C(=O)N([C@@H](C)C1CC1)C2`, the IC50 in series [1] is over 10 µM; in series [2], 0.06 µM; in series [3], over 10 µM; in series [4] it was 4.2 µM.
On to `Cc1nn(C)cc1-c1c(N)nn2ccc(-c3cc4c(c(C(F)(F)F)c3)C(=O)N([C@@H](C)C3CC3)C4)nc12`, for which the IC50 in series [1] was over 10 µM; in series [2], 0.008 µM; in series [3], 4.55 µM; in series [4], 0.47 µM.
Turning to `Cc1cc(-c2ccn3nc(N)nc3c2)cc2c1C(=O)N([C@@H](C)C1CC1)C2`, the Ratio IC50 in the series listed under Homo sapiens is over 200. The IC50 in series [1] was over 10 µM; against PI3K p110 beta/p85 alpha it was over 10 µM; in series [2], 0.05 µM; in series [3], over 10 µM; in series [4] it was 3.1 µM.
For the compound `Cc1cc(-c2ccc3nc(NC(=O)c4ccccc4)cn3n2)cc2c1C(=O)N([C@@H](C)C1CC1)C2`, the half-maximal inhibitory concentration (IC50) in series [1] is over 10 µM; in series [2], 0.093 µM; in series [3], over 10 µM; in series [4], 12 µM.
`Cc1cc(-c2ccc3ncc(-c4cnn(C)c4)n3n2)cc2c1C(=O)N([C@@H](C)C1CC1)C2`: the IC50 is over 10 µM in series [1], 0.015 µM in series [2], 2.38 µM in series [3] and 0.44 µM in series [4].

For the origin of these results see ChEMBL document CHEMBL4665778, “Discovery of Potent and Selective PI3Kγ Inhibitors” (J Med Chem, 2020).
